From article PMC8119889, “Computational Identification of a Putative Allosteric Binding Pocket in TMPRSS2” (Frontiers in Molecular Biosciences, 2021) come the findings set out here.

What is called Kd is the constant that tells how readily two partners part at equilibrium. Read a high Kd as weaker binding.

In the experiment the target is T1, TMPRSS2 (transmembrane serine protease 2) (Homo sapiens, UniProt O15393).
T1 construct: Recombinant human TMPRSS2 (106-492aa, 6xHisTag)
As to the kind of experiment: microscale thermophoresis (His-tag RED-tris-NTA labelled protein, […]). It is filed as binding. In general terms: Microscale thermophoresis detects binding through changes in fluorescence in a small temperature gradient.

T1 sequence (O15393 106-492): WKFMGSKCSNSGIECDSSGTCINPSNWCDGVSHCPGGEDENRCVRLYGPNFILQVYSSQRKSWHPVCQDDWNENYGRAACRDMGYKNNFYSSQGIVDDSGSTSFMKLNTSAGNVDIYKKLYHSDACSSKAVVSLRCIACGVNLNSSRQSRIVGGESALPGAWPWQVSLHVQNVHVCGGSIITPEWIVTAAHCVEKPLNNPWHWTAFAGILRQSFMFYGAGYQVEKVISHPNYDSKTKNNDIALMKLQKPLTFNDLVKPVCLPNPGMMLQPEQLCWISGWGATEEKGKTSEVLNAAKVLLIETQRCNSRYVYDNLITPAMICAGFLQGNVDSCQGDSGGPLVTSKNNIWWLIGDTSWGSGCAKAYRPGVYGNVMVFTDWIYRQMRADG

The compound `CN(Cc1cc(Br)cc(Br)c1N)C1CCCCC1` [BH, bromhexine] had a Kd of 24 ± 13 µM.
